Test results: patent publication US20220008359A1, “COMBINATION ANTI-CANCER PRODUCTS AND METHODS” (priority 2020, published 2022)
Marks after values point to notes of the source that are not given here.

Tests used:
Assay type in all cases: cell-based, human
[1] = system: H1975 cells (wild type sensitive); test: In-cell immunostaining of protein expression and phosphorylation, H1975 wild type cells; set-up: HDAC 1 expression / HDAC 2 expression / HDAC 3 expression / HDAC 4 expression / HDAC 5 expression / HDAC 6 expression / HDAC 7 expression / HDAC 8 expression / HDAC 9 expression / HDAC 10 expression / HDAC 11 expression: scale not given here; conditions: 6 h
Protocol: […] Cells were fixed in place 6 hours after treatment and immunostaining of single cells performed to determine the levels of each protein/phosphor-protein (n=3+/−SD). * p<0.05 less than vehicle control; # p<0.05 greater than vehicle control.
(§1) Assessments of protein expression and protein phosphorylation. Multi-channel fluorescence HCS microscopes perform true in-cell western blotting. Three independent cultures derived from three thawed vials of cells of a tumor were sub-cultured into individual 96-well plates. Twenty-four hours after plating, the cells are transfected with a control plasmid or a control siRNA, or with an empty vector plasmid or with plasmids to express various proteins. After another 24 hours, the cells are ready for drug exposure(s). At various time-points after the initiation of drug exposure, cells are fixed in place using paraformaldehyde and using Triton X100 for permeabilization. Standard immunofluorescent blocking procedures are employed, followed by incubation of different wells with a variety of validated primary antibodies and subsequently validated fluorescent-tagged secondary antibodies are added to each well. The microscope determines the background fluorescence in the well and in parallel randomly determines the mean fluorescent intensity of 100 cells per well.

[2] = system: osimertinib-resistant (OR) H1975 cells; test: In-cell immunostaining of protein expression and phosphorylation, osimertinib-resistant H1975 cells; set-up: HDAC 1 expression / HDAC 2 expression / HDAC 3 expression / HDAC 4 expression / HDAC 5 expression / HDAC 6 expression / HDAC 7 expression / HDAC 8 expression / HDAC 9 expression / HDAC 10 expression / HDAC 11 expression: scale not given here; conditions: 6 h
Protocol: (§2) Generation of erlotinib, afatinib and osimertinib-resistant cells. Cells were incubated in vitro with increasing concentrations of vehicle control or erlotinib or osimertinib until after ˜6 weeks the HCC827 and H1975 and H1650 cells grew with similar kinetics to sensitive cells in either erlotinib ([…]) or osimertinib ([…]), respectively. Afatinib-resistant cells were created in vivo by repeated high dosing until tumors disappeared and then regrew, as previously described.
as §1

[3] = system: osimertinib-resistant (OR) H1650 cells; test: In-cell immunostaining of protein expression and phosphorylation, osimertinib-resistant H1650 cells; conditions: 6 h, VEH = 100
Protocol: as §2, §1

[4] = 1975 WT, GZ17-6.02 2 mM final curcumin, pemetrexed 500 nM
[5] = 1975 WT, GZ17-6.02 2 mM final curcumin, pemetrexed 500 nM, vehicle 100%
[6] = 1975 OR, GZ17-6.02 2 mM final curcumin, pemetrexed 500 nM
[7] = 1975 OR, GZ17-6.02 2 mM final curcumin, pemetrexed 500 nM, vehicle 100%
[8] = 1975 OR, GZ17-6.02, pemetrexed 500 nM, vehicle 100%

With `Nc1nc2[nH]cc(CCc3ccc(C(=O)N[C@@H](CCC(=O)O)C(=O)O)cc3)c2c(=O)[nH]1` [PEM, Pemetrexed] the ERK2 expression [1, 4] was 100, the “HDAC 1 expression” value [1, 4] was 99 and the “HDAC 2 expression” value [1, 4] was 93. The “HDAC 3 expression” value [1, 4] was 100, the “HDAC 4 expression” value [1, 4] was 100 and the “HDAC 5 expression” value [1, 4] was 98. The “HDAC 6 expression” value [1, 4] was 88, the “HDAC 7 expression” value [1, 4] was 98 and the “HDAC 8 expression” value [1, 4] was 101. The “HDAC 9 expression” value [1, 4] was 99, the “HDAC 10 expression” value [1, 4] was 102 and the “HDAC 11 expression” value [1, 4] was 101. For the same molecule, the ATG5 [1, 5] was 109%, the Beclin1 [1, 5] was 112% and the CD95 [1, 5] was 100%. For the same molecule, the CHOP [1, 5] was 107%, the ERBB1 [1, 5] was 101% and the ERBB2 [1, 5] was 101%. The ERBB3 [1, 5] was 99%, the ERBB4 [1, 5] was 100% and the ERK2 [1, 5] was 99%. It also gave an FAS-L [1, 5] of 108%, a GRP78 [1, 5] of 112% and a JAK2 [1, 5] of 102%. For the same molecule, the “P-AKT T308” value [1, 5] was 87* %, the “P-AMPKα T172” value [1, 5] was 105% and the “P-ATG13 S318” value [1, 5] was 104%. The “P-ATM S1980” value [1, 5] was 108%, the P-B1 [1, 5] was 88% and the P-B2 [1, 5] was 96%. The P-B3 [1, 5] was 95%, the P-B4 [1, 5] was 100% and the P-ERK1/2 [1, 5] was 95%. The P-JAK2 [1, 5] was 91%, the “P-NFκB S536” value [1, 5] was 85* % and the P-PDGFRβ [1, 5] was 90%. The “P-PERK T980” value [1, 5] was 103%, the “P-SRC Y416” value [1, 5] was 94% and the “P-SRC Y527” value [1, 5] was 109%. For the same molecule, the “P-STAT3 Y705” value [1, 5] was 88%, the “P-STAT5 Y694” value [1, 5] was 91% and the “P-ULK1 S317” value [1, 5] was 105%. For the same molecule, the “P-ULK1 S757” value [1, 5] was 91%, the P-c-MET [1, 5] was 94% and the P-c-MT [1, 5] was 94%. The “P-eIF2α S51” value [1, 5] was 103%, the “P-mTOR S2448” value [1, 5] was 96% and the “P-mTOR S2481” value [1, 5] was 91%. The PDGFRβ [1, 5] was 100%, the PP1 [1, 5] was 109% and the c-KIT [1, 5] was 99%. For the same molecule, the c-MET [1, 5] was 100%, the “p70 S6K” value [1, 5] was 101% and the “p70 S6K T389” value [1, 5] was 99%. For the same molecule, the BCL-XL expression ([1]; H1975 WT, VEH = 100) was 87*, the ERK2 expression ([1]; H1975 WT, VEH = 100) was 100 and the FLIP-s expression ([1]; H1975 WT, VEH = 100) was 101. For the same molecule, the MCL-1 expression ([1]; H1975 WT, VEH = 100) was 81*, the ERK2 expression [2, 6] was 101 and the “HDAC 1 expression” value [2, 6] was 97. For the same molecule, the “HDAC 2 expression” value [2, 6] was 93, the “HDAC 3 expression” value [2, 6] was 98 and the “HDAC 4 expression” value [2, 6] was 100. For the same molecule, the “HDAC 5 expression” value [2, 6] was 95, the “HDAC 6 expression” value [2, 6] was 93 and the “HDAC 7 expression” value [2, 6] was 98. For the same molecule, the “HDAC 8 expression” value [2, 6] was 101, the “HDAC 9 expression” value [2, 6] was 97 and the “HDAC 10 expression” value [2, 6] was 100. For the same molecule, the “HDAC 11 expression” value [2, 6] was 101, the ATG5 [2, 7] was 110% and the Beclin1 [2, 7] was 111%. It also gave a CD95 [2, 7] of 100%, a CHOP [2, 7] of 107% and an ERBB1 [2, 7] of 99%. The ERBB2 [2, 7] was 100%, the ERBB3 [2, 7] was 101% and the ERBB4 [2, 7] was 100%. The ERK2 [2, 7] was 100%, the FAS-L [2, 7] was 110% and the GRP78 [2, 7] was 115# %. The “P-AMPKα T172” value [2, 7] was 112%, the “P-ATG13 S318” value [2, 7] was 106% and the “P-ATM S1980” value [2, 7] was 109%. The P-B1 [2, 7] was 88%, the P-B2 [2, 7] was 92% and the P-B3 [2, 7] was 93%. It also gave a P-B4 [2, 7] of 95%, a P-ERK1/2 [2, 7] of 96% and a P-JAK2 [2, 7] of 89%. The “P-NFκB S536” value [2, 7] was 92%, the P-PDGFRβ [2, 7] was 98% and the “P-PERK T980” value [2, 7] was 101%. For the same molecule, the “P-SRC Y416” value [2, 7] was 90%, the “P-SRC Y527” value [2, 7] was 112% and the “P-STAT3 Y705” value [2, 7] was 88%. For the same molecule, the “P-STAT5 Y694” value [2, 7] was 87* %, the “P-ULK1 S317” value [2, 7] was 103% and the “P-ULK1 S757” value [2, 7] was 96%. For the same molecule, the P-c-MET [2, 7] was 88%, the P-c-MT [2, 7] was 90% and the “P-eIF2α S51” value [2, 7] was 101%. For the same molecule, the “P-mTOR S2448” value [2, 7] was 94%, the “P-mTOR S2481” value [2, 7] was 92% and the PDGFRβ [2, 7] was 100%. The PP1 [2, 7] was 105%, the c-KIT [2, 7] was 101% and the c-MET [2, 7] was 100%. For the same molecule, the “p70 S6K” value [2, 7] was 101%, the “p70 S6K T389” value [2, 7] was 98% and the JAK2 [2, 8] was 98%. For the same molecule, the “P-AKT T308” value [2, 8] was 87* %, the BCL-XL expression ([2]; H1975 OR, VEH = 100) was 90 and the ERK2 expression ([2]; H1975 OR, VEH = 100) was 101. The FLIP-s expression ([2]; H1975 OR, VEH = 100) was 98, the MCL-1 expression ([2]; H1975 OR, VEH = 100) was 84* and the BCL-XL expression [3] was 85*. The ERK2 expression [3] was 100, the FLIP-s expression [3] was 93 and the MCL-1 expression [3] was 86*.
